We go through seven molecules from ChEMBL document CHEMBL3045374, “Selective herbicide activity of 2,5-di(benzylamine)-p-benzoquinone against the monocot weed Echinochloa crusgalli. An in vivo analysis of photosynthesis and growth” (2005).

Active and inactive are the calls of the source. The calls are words filed in the database; no cut-off is given here.

Experiment [1] concerns Phaseolus vulgaris. Description: Herbicidal activity against Phaseolus vulgaris using youngest fully expanded leaf assessed as inhibition of CO2 assimilation at 40 uM at 25 to 28 degC measured after 120 hr. The format is functional, organism-based.
For experiment [2], the system named is Phaseolus vulgaris. Description: Herbicidal activity against Phaseolus vulgaris using youngest fully expanded leaf assessed as inhibition of stomatal conductance at 40 uM at 25 to 28 degC measured after 120 hr. The format is functional, organism-based.
Experiment [3] relates to Echinochloa crus-galli. Description: Herbicidal activity against Echinochloa crus-galli (barnyard grass) using youngest fully expanded leaf assessed as inhibition of CO2 assimilation at 40 uM at 25 to 28 degC measured after 24 hr. The format is functional.
Experiment [4] has as its system Echinochloa crus-galli. Description: Herbicidal activity against Echinochloa crus-galli (barnyard grass) using youngest fully expanded leaf assessed as inhibition of CO2 assimilation at 40 uM at 25 to 28 degC measured after 1 hr. It counts as functional.
Experiment [5] deals with Echinochloa crus-galli. Description: Herbicidal activity against Echinochloa crus-galli (barnyard grass) using youngest fully expanded leaf assessed as inhibition of stomatal conductance at 40 uM at 25 to 28 degC measured after 1 hr. It counts as functional.
The test system of experiment [6] is Echinochloa crus-galli. In words: Herbicidal activity against Echinochloa crus-galli (barnyard grass) using youngest fully expanded leaf assessed as inhibition of stomatal conductance at 40 uM at 25 to 28 degC measured after 20 hr. It counts as functional.
The test system of experiment [7] is Echinochloa crus-galli. In words: Herbicidal activity against Echinochloa crus-galli (barnyard grass) using youngest fully expanded leaf assessed as inhibition of CO2 assimilation at 40 uM at 25 to 28 degC measured after 5 days. The format is functional, organism-based.
Experiment [8] has as its target T1, Photosystem I iron-sulfur center (Panicum virgatum) (UniProt G3EFH9).
T1 sequence (whole entry): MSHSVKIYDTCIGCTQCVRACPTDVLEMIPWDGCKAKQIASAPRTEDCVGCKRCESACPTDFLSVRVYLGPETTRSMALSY
In words: Inhibition of PSI in Echinochloa crus-galli (barnyard grass) assessed as 50% compound concentration required to accept electrons.

Experiment [9] deals with Echinochloa crus-galli. Description: Herbicidal activity against Echinochloa crus-galli (barnyard grass) assessed as chlorophyll loss at 40 uM measured after 5 days treatment (reference value: 0%). It counts as functional.
The test system of experiment [10] is Echinochloa crus-galli. In words: Herbicidal activity against Echinochloa crus-galli (barnyard grass) assessed as electrolyte leakage at 40 uM measured after 5 days treatment (reference value: 100%). It counts as functional.
In the next experiment the test system is Solanum lycopersicum. In words: Induction of chlorophyll a fluorescence curve in green Solanum lycopersicum (tomato) leaf relative to control. It counts as functional, organism-based.
In experiment [11] the test system is Zea mays. Description: Herbicidal activity against Zea mays (maize) assessed as reduction in dry biomass at 40 uM measured after 14 days treatment. The format is functional. The conditions noted are these: 336 h.
The test system of experiment [12] is Phaseolus vulgaris. Description: Herbicidal activity against Phaseolus vulgaris assessed as reduction in dry biomass at 40 uM measured after 14 days treatment. It counts as functional, organism-based.
In experiment [13] the test system is Echinochloa crus-galli. Description: Herbicidal activity against Echinochloa crus-galli (barnyard grass) using youngest fully expanded leaf assessed as intracellular CO2 concentration at 40 uM at 25 to 28 degC measured after 120 hr (reference value: 171.0 +/- 23.1 uL/L). It counts as functional.
Experiment [14] relates to Zea mays. Description: Induction of chlorophyll a fluorescence curve in Zea mays (maize) leaf relative to control. It counts as functional, organism-based.
Experiment [15] deals with Photosystem II reaction center protein M (Pennisetum americanum) (UniProt Q672I5). Description: Inhibition of PSII in Echinochloa crus-galli (barnyard grass) using dark-adapted leaf assessed as photosynthetic electron transport at 40 uM measured after 1 hr by chlorophyll fluorescence induction curve assay.
In experiment [16] the test system is Echinochloa crus-galli. In words: Herbicidal activity against Echinochloa crus-galli (barnyard grass) using youngest fully expanded leaf assessed as inhibition of stomatal conductance at 40 uM at 25 to 28 degC measured after 120 hr. It counts as functional, organism-based.
Experiment [17] concerns the target Photosystem II reaction center protein M (Pennisetum americanum) (UniProt Q672I5). Description: Inhibition of PSII in Echinochloa crus-galli (barnyard grass) using leaf assessed as inhibition of electron transport at 40 uM measured after 7 to 14 days.
In experiment [18] the test system is Echinochloa crus-galli. Description: Herbicidal activity against Echinochloa crus-galli (barnyard grass) assessed as reduction in dry biomass at 40 uM measured after 14 days treatment. It counts as functional. The conditions noted are these: 336 h.
The target of experiment [19] is T1, Photosystem I iron-sulfur center (Panicum virgatum). Description: Inhibition of PSI in Echinochloa crus-galli (barnyard grass) using dark-adapted leaf assessed as photosynthetic electron transport at 40 uM measured after 1 hr by chlorophyll fluorescence induction curve assay.
In experiment [20] the test system is Physalis ixocarpa. Description: Herbicidal activity against Physalis ixocarpa assessed as reduction in dry biomass at 40 uM measured after 14 days treatment. The format is functional, organism-based.
The subject of experiment [21] is Physalis ixocarpa. In words: Herbicidal activity against Physalis ixocarpa using youngest fully expanded leaf assessed as inhibition of CO2 assimilation at 40 uM at 25 to 28 degC measured after 120 hr (reference value: 6.3 +/- 0.6 umol/m'2/s). The format is functional.
The test system of experiment [22] is Phaseolus vulgaris. Description: Herbicidal activity against Phaseolus vulgaris using youngest fully expanded leaf assessed as stomatal conductance at 40 uM at 25 to 28 degC measured after 120 hr (reference value: 161.8 +/- 10 mmol/m'2/s). The format is functional.
Experiment [23] concerns Zea mays. Description: Herbicidal activity against Zea mays (maize) using youngest fully expanded leaf assessed as intracellular CO2 concentration at 40 uM at 25 to 28 degC measured after 120 hr (reference value: 196.1 +/- 4.9 uL/L). It counts as functional.
For experiment [24], the system named is Zea mays. In words: Herbicidal activity against Zea mays (maize) using youngest fully expanded leaf assessed as inhibition of CO2 assimilation at 40 uM at 25 to 28 degC measured after 120 hr (reference value: 8 +/- 0.4 umol/m'2/s). It counts as functional.
In experiment [25] the test system is Echinochloa crus-galli. Description: Herbicidal activity against Echinochloa crus-galli (barnyard grass) using youngest fully expanded leaf assessed as inhibition of CO2 assimilation at 40 uM at 25 to 28 degC measured after 120 hr (reference value: 10.7 +/- 1.1 umol/m'2/s). The format is functional.
The test system of experiment [26] is Echinochloa crus-galli. In words: Herbicidal activity against Echinochloa crus-galli (barnyard grass) using youngest fully expanded leaf assessed as stomatal conductance at 40 uM at 25 to 28 degC measured after 120 hr (reference value: 100.7 +/- 8.6 mmol/m'2/s). The format is functional.
The subject of experiment [27] is Phaseolus vulgaris. Description: Herbicidal activity against Phaseolus vulgaris using youngest fully expanded leaf assessed as intracellular CO2 concentration at 40 uM at 25 to 28 degC measured after 120 hr (reference value: 256.0 +/- 5.8 uL/L). The format is functional.
A further experiment deals with Fabaceae. Description: Induction of chlorophyll a fluorescence curve in Fabaceae (bean) leaf relative to control. It counts as functional, organism-based.
Experiment [28] concerns Physalis ixocarpa. Description: Herbicidal activity against Physalis ixocarpa using youngest fully expanded leaf assessed as stomatal conductance at 40 uM at 25 to 28 degC measured after 120 hr (reference value: 184.6 +/- 36.6 mmol/m'2/s). It counts as functional.
Experiment [29] deals with Zea mays. In words: Herbicidal activity against Zea mays (maize) using youngest fully expanded leaf assessed as stomatal conductance at 40 uM at 25 to 28 degC measured after 120 hr (reference value: 103.9 +/- 6.5 mmol/m'2/s). It counts as functional.
Experiment [30] relates to Physalis ixocarpa. In words: Herbicidal activity against Physalis ixocarpa using youngest fully expanded leaf assessed as intracellular CO2 concentration at 40 uM at 25 to 28 degC measured after 120 hr (reference value: 254.0 +/- 8.6 uL/L). The format is functional.
In experiment [31] the test system is Phaseolus vulgaris. In words: Herbicidal activity against Phaseolus vulgaris using youngest fully expanded leaf assessed as inhibition of CO2 assimilation at 40 uM at 25 to 28 degC measured after 120 hr (reference value: 7.2 +/- 0.3 umol/m'2/s). It counts as functional.

Turning to `CC(NC1=CC(=O)C(NC(C)c2ccccc2)=CC1=O)c1ccccc1` (configuration not stated), the inhibition result in the experiment with Phaseolus vulgaris [1] and in the experiment on Phaseolus vulgaris [2] was “inactive” in each case. Further, the inhibition at 40 µM in the experiment with Echinochloa crus-galli [3] stood at 84%; in the experiment with Echinochloa crus-galli [4], 80%; with Echinochloa crus-galli [5] it was 45%; with Echinochloa crus-galli [6], 62%.

Consider `O=C1C=C(Nc2ccccc2O)C(=O)C=C1Nc1ccccc1O`, for which the inhibition entry with Phaseolus vulgaris [1] and with Phaseolus vulgaris [2] was “inactive” each time. Further, in the experiment with Echinochloa crus-galli [7], the inhibition result was “Active”. In addition, the inhibition at 40 µM worked out at 84% in the experiment on Echinochloa crus-galli [3], 80% in the experiment on Echinochloa crus-galli [4], 45% in the experiment with Echinochloa crus-galli [5] and 62% with Echinochloa crus-galli [6].

Consider `C[C@H](NC1=CC(=O)C(N[C@@H](C)[C@H](O)c2ccccc2)=CC1=O)[C@H](O)c1ccccc1`, for which the inhibition entry in the experiment with Phaseolus vulgaris [1] and in the experiment with Phaseolus vulgaris [2] was “inactive” each time. Besides, the inhibition at 40 µM turned out to be 84% in the experiment on Echinochloa crus-galli [3], 80% in the experiment on Echinochloa crus-galli [4], 45% in the experiment with Echinochloa crus-galli [5] and 62% in the experiment with Echinochloa crus-galli [6].

In the case of `COc1ccccc1NC1=CC(=O)C(Nc2ccccc2OC)=CC1=O`, the inhibition entry in the experiment with Phaseolus vulgaris [1] and with Phaseolus vulgaris [2] was “inactive” throughout. Further, the inhibition at 40 µM with Echinochloa crus-galli [3] was 84%; in the experiment on Echinochloa crus-galli [4], 80%; with Echinochloa crus-galli [5] it was 45%; in the experiment with Echinochloa crus-galli [6] it was 62%.

With `C[n+]1ccc(-c2cc[n+](C)cc2)cc1` [PARAQUAT], the values for the Activity (in [8]; with Echinochloa crus-galli [9]; with Echinochloa crus-galli [10]) were 110 µM, 44.3% and 438.59%, respectively.

On to `O=C1C=C(NCc2ccccc2)C(=O)C=C1NCc1ccccc1`, for which the inhibition result (in the experiment on Phaseolus vulgaris [1]; in the experiment on Phaseolus vulgaris [12]; with Phaseolus vulgaris [2]; in [15]; in the experiment with Physalis ixocarpa [20]) was “inactive” throughout. For the same molecule, the Activity was 0.23 µM in experiment [8]; 221 uL/L in the experiment with Echinochloa crus-galli [13]; 3.5% in the experiment with Echinochloa crus-galli [9]; 135.6% in the experiment on Echinochloa crus-galli [10]; 5.6 micromol/m2/s in the experiment on Physalis ixocarpa [21]; 150 mmol/m2/s in the experiment with Phaseolus vulgaris [22]. Besides, the Activity in the experiment with Zea mays [23] is reported as 212 uL/L; in the experiment with Zea mays [24], 7.2 micromol/m2/s; in the experiment with Echinochloa crus-galli [25] it was 4.2 micromol/m2/s; with Echinochloa crus-galli [26], 75.3 mmol/m2/s; in the experiment with Phaseolus vulgaris [27] it was 254 uL/L; with Physalis ixocarpa [28], 151.2 mmol/m2/s. Moreover, the Activity in the experiment on Zea mays [29] is recorded as 82.4 mmol/m2/s; with Physalis ixocarpa [30] it was 254.3 uL/L; with Phaseolus vulgaris [31], 7 micromol/m2/s. Also, the result in the experiment with Solanum lycopersicum, in the experiment with Zea mays [14] and in the experiment with Fabaceae was inactive. Besides, the inhibition at 40 µM in the experiment on Zea mays [11] was determined as 60%; in the experiment with Echinochloa crus-galli [18] it was 76.5%; with Echinochloa crus-galli [3] it was 84%; in the experiment on Echinochloa crus-galli [4], 80%; in the experiment with Echinochloa crus-galli [5], 45%; with Echinochloa crus-galli [6] it was 62%. In addition, the inhibition result (in the experiment with Echinochloa crus-galli [16]; in experiment [19]) was “Active” throughout. Besides, the inhibition in [17] was 44%.

On to `O=C1C=C(Nc2ccccc2)C(=O)C=C1Nc1ccccc1`, for which the inhibition result in the experiment with Phaseolus vulgaris [1] and in the experiment on Phaseolus vulgaris [2] was “inactive” each time. Besides, the inhibition entry with Echinochloa crus-galli [7] was “Active”. For the same molecule, the inhibition at 40 µM was 84% in the experiment on Echinochloa crus-galli [3], 80% with Echinochloa crus-galli [4], 45% with Echinochloa crus-galli [5] and 62% in the experiment on Echinochloa crus-galli [6].
